Measured values from patent US11944605B2, “Rapamycin analogs and uses thereof” (Janssen Pharmaceutica NV, priority 2018, dated 2024).
Entries after “also recorded” stand apart in the source; their conditions may differ. Like-named read-outs stand apart in the source and are kept apart here. Values belong to the compound of their own block, whether it stands above or below them.

How the values were obtained:
[1] = tested on: pS6K1 (p-p70 S6 Kinase (Thr389)) in MCF-7 cells; assay: AlphaLISA Ultra pS6K1 Assay; format: cell-based; conditions: Homo sapiens, 1.5 h; MCF7 cells, 90 min
In short: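 MCF-7 cells were seeded for 20–24 h, refed with fresh medium for 2 h, then treated with compound for 90 min at 0.5% final DMSO. Lysates were frozen at −80 °C, thawed and assayed by AlphaLISA with acceptor then donor beads, 2 h each.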

mTORC1 over mTORC2 = assay: mTORC1 selectivity over mTORC2 at 24 hrs (Western blot based pS6K1 and pAKT assay); format: cell-based; conditions: 24 hrs
[2] = tested on: mTORC1 pathway (pS6K1 T389) in PC3 cells; assay: Western blot, mTORC1 pathway (pS6K1) in PC3 cells; format: cell-based
In short: (§1)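 Triton lysates analysed by Western blot for pS6K1 and pAkt, detected with IRDye 800 anti-rabbit secondary on a Li-Cor imager.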

[3] = tested on: mTORC2 pathway (Akt phosphorylation) in PC3 cells; assay: Western blot, mTORC2 pathway (pAkt) in PC3 cells; format: cell-based; conditions: for inhibition of mTORC2 (Akt phosphorylation): 24 hours
In short: as §1

[4] = tested on: 4E-BP1 phosphorylation in PC3 cells; assay: Western blot, 4E-BP1 phosphorylation in PC3 cells; format: cell-based; conditions: 24 hours
[5] = tested on: mTORC1 pathway in Jurkat cells; assay: Western blot, mTORC1 pathway in Jurkat cells; format: cell-based; conditions: 24 hrs
Description: (§2) The methods employed were substantially similar to those described above. Compounds were evaluated in PC3 cells, Jurkat cells, wild-type mouse embryotic fibroblast (MEF) cells, tuberous sclerosis 2 (TSC2) negative (TSC −/−) MEF cells, and tuberous sclerosis 2 (TSC2) positive (TSC +/+) MEF cells. Cells were incubated with compounds of the present invention for various time periods (e.g., 5 minutes, 15 minutes, 30 minutes, 90 minutes, 24 hours, or 48 hours), and evaluated according to known methodologies, such as those herein described.

[6] = tested on: mTORC2 (Akt phosphorylation) in Jurkat cells; assay: Western blot, mTORC2 pathway (pAkt) in Jurkat cells; format: cell-based; conditions: 24 hrs
Description: as §2

[7] = tested on: mTORC1 pathway in tuberous sclerosis (TSC2) negative (TSC−/−) MEF cells; assay: Western blot, mTORC1 pathway in TSC−/− MEF cells; format: cell-based, mouse
Description: as §2

[8] = tested on: mTORC2 (Akt phosphorylation) in TSC−/− MEF cells; assay: Western blot, mTORC2 pathway (pAkt) in TSC−/− MEF cells; format: cell-based, mouse
Description: as §2

[9] = tested on: mTORC1 pathway in tuberous sclerosis 2 (TSC2) positive (TSC+/+) MEF cells; assay: Western blot, mTORC1 pathway in TSC+/+ MEF cells; format: cell-based, mouse
Description: as §2

[10] = tested on: mTORC2 (Akt phosphorylation) in TSC+/+ MEF cells; assay: Western blot, mTORC2 pathway (pAkt) in TSC+/+ MEF cells; format: cell-based, mouse; conditions: 90 minutes
Description: as §2

[11] = tested on: mTORC1 pathway in wild-type MEF cells; assay: Western blot, mTORC1 pathway in wild-type MEF cells; format: cell-based, mouse; conditions: 24 hours
Description: as §2

[12] = tested on: mTORC2 (Akt phosphorylation) in wild-type MEF cells; assay: Western blot, mTORC2 pathway (pAkt) in wild-type MEF cells; format: cell-based, mouse; conditions: 24 hours
Description: as §2

IFN-γ production = IFN-γ production in allogenic mixed lymphocyte reaction; format: cell-based; conditions: for IC50: read-out: IFN-γ Inhibition IC50s
Description: Assessment of Effect on IFN-γ Production in Allogenic Mixed Lymphocyte Reaction
The effect of rapamycin, everolimus, I-29, and I-117 on IFN-y production was evaluated in an allogenic mixed lymphocyte reaction (E.g., Eleftheriadis, T. et al., Int. J. Mol. Med., 37(5): 1412-20 (2016) https://doi.org/10.3892/ijmm.2016.2547).

[13] = Pharmacokinetic properties in C57Bl/6 mice; format: in vivo; conditions: for half-life: read-out: Terminal T1/2 (converted)
Description: Pharmacokinetic Properties
The pharmacokinetic properties of compounds of the present invention were evaluated in C57Bl/6 mice and compared with rapamycin. Animals were fasted overnight prior to administration of I-29 or rapamycin (1 mg/kg IV, 10 mg/kg PO, or 2 mg/kg IP). Animals were bled at time intervals for up to 48 hours following administration of compounds. Whole blood from each mouse was indivisually collected in polypropylene tubes and immediately centrifuged. Alloquates of the separated plasma were promptly prepared for HPCL analysis.

[14] = Glucose tolerance (ipGTT) during chronic treatment in lean C57Bl/6 mice; format: in vivo; conditions: chronic treatment 15 days, I-29 10 mg/kg PO, rapamycin 10 mg/kg IP
Description: Assessment of Effect of Chronic Treatment with I-29 on Glucose Tolerance and Insulin Sensitivity in Lean C57Bl/6 Mice
C57Bl/6 mice (n=12; 8 weeks of age) were randomized and baseline measurements (weight, fasting glucose, and fasting insulin) were measured four (4) days prior to the administration of compounds or vehicle. Animals were then treated with I-29 (10 mg/kg PO), rapamycin (10 mg/kg IP) or vehicle (PO or IP) for 19 days. On day 7 and 14 animals were weighed and fed glucose and fed insulin levels were evaluated. Animals were fasted overnight on day 14 and on day 15 fasting insulin and an intraperitoneal glucose tolerance test (ipGTT) were evaluated. On day 19 animals were sacrificed one (1) hour after compound or vehicle administration. Tissues were harvested for evaluating compound levels and pharmacodynamics.

[15] = tested on: T389 of S6K1 (an mTORC1 substrate); conditions: PC3, HEK-293T, HeLa, and H460 cells, 1 or 24 hour treatments; cited from earlier work
[16] = tested on: Akt (an mTORC2 substrate); conditions: cited from earlier work
Akt phosphorylation = conditions: mice treated daily for 1 week; cited from earlier work
[17] = tested on: AKT (PKB) Ser473 phosphorylation; conditions: human adipocytes, 0.01 μM; cited from earlier work
[18] = tested on: glucose uptake in human adipocytes; conditions: 0.01 μM; cited from earlier work
Lmn−/− mice = conditions: short-term treatment; cited from earlier work

IC50 [1]: < 0.1 nM
IC50 (IFN-γ production): > 3000 nM
Structure (SMILES): CO[C@@H]1C[C@H](C[C@@H](C)[C@@H]2CC(=O)[C@H](C)/C=C(\C)[C@@H](O)[C@@H](OC)C(=O)[C@H](C)C[C@H](C)/C=C/C=C/C=C(\C)[C@@H](OCCOCCO)C[C@@H]3CC[C@@H](C)[C@@](O)(O3)C(=O)C(=O)N3CCCC[C@H]3C(=O)O2)CC[C@H]1OCCO [I-117, (21E,23E,25E,26E,34R,35S,36R,37R,39S,41S,43S,44S,45R,46R, 55R)-45,55-dihydroxy-43-[2-(2-hydroxyethoxy)ethoxy]-44-[(1R)-2-[(1S,3R, 4R)-4-(2-hydroxyethoxy)-3-methoxy-cyclohexyl]-1-methyl-ethyl]-46-methoxy-34,35,36,37,47,48-hexamethyl-66, 67-dioxa-56-azatricyclohexatriaconta-21,23,25(47),26(48)-tetraene-49, 50,51,52,53-pentone]
mTORC1 selective @ 24 hrs (mTORC1 over mTORC2): YES
inhibition of the mTORC1 pathway ([2]; PC3 cells, 24 hours): strong inhibition
inhibition of mTORC2 (Akt phosphorylation) [3]: does not inhibit
inhibition of 4E-BP1 phosphorylation [4]: no inhibition
inhibition of the mTORC1 pathway [5]: strong inhibition
inhibition of mTORC2 (Akt phosphorylation) [6]: do not inhibit
inhibition of the mTORC1 pathway ([7]; 90 minutes): strong inhibition
inhibition of the mTORC1 pathway ([7]; 24 hours): strong inhibition
inhibition of mTORC2 (Akt phosphorylation) ([8]; 90 minutes): do not inhibit
inhibition of mTORC2 (Akt phosphorylation) ([8]; 24 hours): do not inhibit
inhibition of the mTORC1 pathway ([9]; 90 minutes): moderate concentration dependent inhibition
inhibition of mTORC2 (Akt phosphorylation) [10]: do not inhibit
inhibition of the mTORC1 pathway [11]: moderate inhibition; also recorded: strong inhibition
inhibition of mTORC2 (Akt phosphorylation) [12]: do not inhibit
inhibition of IFN-γ production (IFN-γ production): did not inhibit

Structure (SMILES): CO[C@H]1C[C@@H]2CC[C@@H](C)[C@@](O)(O2)C(=O)C(=O)N2CCCC[C@H]2C(=O)O[C@H]([C@H](C)C[C@@H]2CC[C@@H](O)[C@H](OC)C2)CC(=O)[C@H](C)/C=C(\C)[C@@H](O)[C@@H](OC)C(=O)[C@H](C)C[C@H](C)/C=C/C=C/C=C/1C [Rapamycin, rapamycin]
inhibition of the mTORC1 pathway (pS6K1) ([2]; PC3 cells, 24 and 48 hours): significant reduction; also recorded: strong inhibition
inhibition of the mTORC1 pathway ([2]; PC3 cells, 30, 15, or 5 minutes): time dependent inhibition
inhibition of the mTORC1 pathway ([2]; PC3 cells, 90 minutes): strong inhibition
inhibition of the mTORC1 pathway ([2]; PC3 cells, 24 hours): strong inhibition
inhibition of the mTORC2 pathway (Akt phosphorylation) ([3]; 24 and 48 hours): inhibition; also recorded: inhibited
inhibition of mTORC2 (Akt phosphorylation) [3]: dose dependent inhibition
inhibition of 4E-BP1 phosphorylation [4]: no inhibition
inhibition of the mTORC1 pathway ([7]; 24 hours): strong inhibition
inhibition of the mTORC1 pathway ([9]; 90 minutes): strong inhibition
inhibition of the mTORC1 pathway ([9]; 24 hours): strong inhibition
F ([13]; 2 mg/kg IP): 35.1%
F ([13]; 10 mg/kg PO): 0.8%
AUC(0-inf) ([13]; mouse, plasma, 1 mg/kg IV): 3630 ng·h/mL
AUC(0-t) ([13]; mouse, plasma, 1 mg/kg IV): 3620 ng·h/mL
MRT inf ([13]; mouse, plasma, 1 mg/kg IV): 6.27 h
clearance ([13]; mouse, plasma, 1 mg/kg IV): 4.6 mL/min/kg
half-life ([13]; mouse, plasma, 1 mg/kg IV): 8.35 h
Vd ([13]; mouse, plasma, 1 mg/kg IV, read-out: Vss): 1.73 L/kg
AUC(0-inf) ([13]; mouse, plasma, 2 mg/kg IP): 2540 ng·h/mL
AUC(0-t) ([13]; mouse, plasma, 2 mg/kg IP): 2480 ng·h/mL
Cmax ([13]; mouse, plasma, 2 mg/kg IP): 614 ng/mL
Tmax ([13]; mouse, plasma, 2 mg/kg IP): 0.25 h
half-life ([13]; mouse, plasma, 2 mg/kg IP): 4.8 h
AUC(0-t) ([13]; mouse, plasma, 10 mg/kg PO): 292 ng·h/mL
Cmax ([13]; mouse, plasma, 10 mg/kg PO): 52.8 ng/mL
Tmax ([13]; mouse, plasma, 10 mg/kg PO): 3 h
glucose intolerance in intraperitoneal glucose tolerance test (ipGTT) [14]: induced glucose intolerance
inhibition of IFN-γ production (IFN-γ production): significantly inhibited
IC50 (IFN-γ production): 2.4 nM
S6K1 phosphorylation [15]: inhibited
inhibition of pAKT ([16]; HEK-293T cells): Partial inhibition
Akt phosphorylation ([16]; HeLa cells): increase
Akt phosphorylation ([16]; PC3 cells): strongly decreased
Akt phosphorylation in the thymus, adipose tissue, heart, and lung (Akt phosphorylation): decreased
AKT (PKB) Ser473 phosphorylation [17]: reduced
glucose uptake [18]: reduced
enhanced survival (Lmn−/− mice): ~50%
